PubChem BioAssay (NCI)
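Exposure lasted 48 hours, with cells grown in 96-well plates and compounds tested at five concentrations. At the GI50, growth is halved. TGI: concentration producing complete growth inhibition.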

Legend:
Experiment in all cases: NCI-60 cell line screen, 48 h
MOLT-4 leukemia = tested on: MOLT-4 leukemia
HCT-116 colon = tested on: HCT-116 colon
SW-620 colon = tested on: SW-620 colon
SNB-19 CNS = tested on: SNB-19 CNS
A498 renal = tested on: A498 renal
PC-3 prostate = tested on: PC-3 prostate
RPMI-8226 leukemia = tested on: RPMI-8226 leukemia
NCI-H23 lung = tested on: NCI-H23 lung
COLO 205 colon = tested on: COLO 205 colon
MDA-MB-231 breast = tested on: MDA-MB-231 breast
T-47D breast = tested on: T-47D breast
EKVX NSCLC = tested on: EKVX NSCLC
MDA-N = tested on: MDA-N
SK-OV-3 ovarian = tested on: SK-OV-3 ovarian
SF-295 CNS = tested on: SF-295 CNS
IGROV1 ovarian = tested on: IGROV1 ovarian
KM12 colon = tested on: KM12 colon
SK-MEL-28 melanoma = tested on: SK-MEL-28 melanoma

Row | SMILES | TGI (MOLT-4 leukemia) [µM] | TGI (HCT-116 colon) [µM] | TGI (SW-620 colon) [µM] | TGI (SNB-19 CNS) [µM] | TGI (A498 renal) [µM] | TGI (PC-3 prostate) [µM] | GI50 (RPMI-8226 leukemia) [µM] | TGI (RPMI-8226 leukemia) [µM] | TGI (NCI-H23 lung) [µM] | TGI (COLO 205 colon) [µM] | TGI (MDA-MB-231 breast) [µM] | TGI (T-47D breast) [µM] | TGI (EKVX NSCLC) [µM] | TGI (MDA-N) [µM] | TGI (SK-OV-3 ovarian) [µM] | TGI (SF-295 CNS) [µM] | TGI (IGROV1 ovarian) [µM] | TGI (KM12 colon) [µM] | TGI (SK-MEL-28 melanoma) [µM]
1 | CC(=O)OCC(OC(C)=O)C(OC(C)=O)C(C=NN(C(C)=O)S(=O)(=O)c1ccc(/C=C2\NC(=O)NC2=O)cc1)OC(C)=O (configuration not stated) | > 100 | > 100 | > 100 | > 100 | > 100 | > 100 | > 100 | > 100 | > 100 | > 100 | > 100 | > 100 | > 100 | > 100 | > 100 | > 100 | > 100 | – | –
2 | CC1C(c2ccccc2)OP(=O)(OC(C#N)c2ccccc2)N1C (configuration not stated) | > 100 | > 100 | > 100 | > 100 | > 100 | > 100 | – | > 100 | > 100 | > 100 | > 100 | > 100 | > 100 | > 100 | > 100 | > 100 | > 100 | > 100 | > 100
3 | Fc1ccc2nc3n(c2c1)C(c1c(F)cccc1F)SC3 (configuration not stated) | > 100 | > 100 | > 100 | > 100 | > 100 | > 100 | – | > 100 | > 100 | > 100 | > 100 | > 100 | – | 85.3 | > 100 | > 100 | > 100 | > 100 | > 100
4 | COC(=O)C1CCC(=O)N1CN(C(C)=O)c1ccccc1 (configuration not stated) | > 100 | > 100 | > 100 | > 100 | > 100 | > 100 | – | > 100 | > 100 | > 100 | > 100 | > 100 | > 100 | > 100 | > 100 | > 100 | > 100 | > 100 | > 100
5 | CCCCCC/C=C\CCCCCCCCCc1cccc(O)c1C(=O)O | > 100 | > 100 | > 100 | > 100 | > 100 | > 100 | – | > 100 | > 100 | > 100 | > 100 | > 100 | > 100 | > 100 | > 100 | > 100 | > 100 | > 100 | > 100
6 | CC1(CCC2C=CCC2)CCCNC1=S (configuration not stated) | > 10 | > 10 | > 10 | > 10 | > 10 | > 10 | – | > 10 | > 10 | – | > 10 | > 10 | > 10 | > 10 | > 10 | > 10 | > 10 | > 10 | > 10
7 | C=Cc1c(C)c(OC)cc2c1Oc1ccc(OC)c(C)c1CC2 | > 100 | > 100 | > 100 | > 100 | > 100 | > 100 | – | > 100 | > 100 | > 100 | > 100 | > 100 | > 100 | > 100 | > 100 | > 100 | > 100 | > 100 | > 100
8 | C=CCOC(=O)/C(=C\c1ccc(OC)c(OC)c1)c1ccc(OC)c(OC)c1 | 49.5 | > 100 | > 100 | > 100 | > 100 | > 100 | – | 47.6 | > 100 | > 100 | > 100 | 98.4 | > 100 | > 100 | > 100 | > 100 | > 100 | > 100 | > 100
9 | CCC1(CC)CC(=NNS(=O)(=O)c2ccc(C)cc2)C1 | > 100 | > 100 | > 100 | > 100 | > 100 | > 100 | – | – | > 100 | > 100 | > 100 | > 100 | > 100 | > 100 | > 100 | > 100 | > 100 | > 100 | > 100
10 | O=C1C2CC=CCC2C(=O)N1n1c(-c2ccccc2)n[nH]c1=O (configuration not stated) | > 100 | > 100 | > 100 | > 100 | > 100 | > 100 | – | > 100 | > 100 | > 100 | > 100 | > 100 | > 100 | > 100 | > 100 | > 100 | > 100 | > 100 | –
11 | N#CC(C#N)=Cc1ccc2c(c1)OC(Cl)O2 (configuration not stated) | > 100 | 38.6 | – | 66.4 | – | 47.8 | – | > 100 | > 100 | 52 | – | > 100 | 79.5 | 35.2 | 61.5 | 37.4 | – | 39.9 | 36.9
12 | CC1=C(N2CC2)C(=O)c2nc3n(c2C1=O)CCC3OC(=O)CCl (configuration not stated) | 5.89 | 0.383 | 0.191 | 0.684 | 0.13 | – | – | 1.7 | 0.0825 | 0.444 | > 100 | 3.88 | 0.551 | 0.056 | 0.29 | 0.204 | 0.928 | 0.0977 | 0.141
13 | CC1CC[C@@H](C(C)C)[C@H](Oc2nnc(C3OC(CO)C(O)C3O)o2)C1 (some centres not stated) | > 100 | > 100 | > 100 | > 100 | > 100 | > 100 | – | > 100 | > 100 | > 100 | > 100 | > 100 | > 100 | > 100 | > 100 | > 100 | – | > 100 | –
14 | COc1ccc(-c2c(N)n(-c3nc4ccccc4s3)c(=O)c3cc([N+](=O)[O-])ccc23)cc1 | 49.2 | > 100 | > 100 | > 100 | > 100 | > 100 | – | > 100 | 45.2 | – | 48.7 | – | 44.6 | > 100 | 33 | 97.1 | – | > 100 | > 100
15 | N#C/C(=C\c1ccccc1)C(=O)Nc1nnc(-c2ccccc2)o1 | > 100 | > 100 | > 100 | – | 72.7 | > 100 | – | 62.6 | > 100 | 80.4 | > 100 | > 100 | > 100 | > 100 | > 100 | > 100 | > 100 | > 100 | > 100
16 | O=c1oc2ccccc2c(Nc2ccc3c(c2)S(=O)(=O)c2ccccc2O3)c1[N+](=O)[O-] | – | 65 | > 100 | > 100 | – | 62.1 | – | 59.8 | 62.6 | 47.6 | 67.9 | 62.3 | > 100 | 85.3 | 68 | 77.7 | 97.1 | > 100 | 51.9
17 | CN(C)c1ccc(N=Nc2ccc3nc[nH]c3c2)cc1 | > 100 | 38.8 | > 100 | > 100 | 41.5 | > 100 | – | 59.2 | > 100 | 50.4 | 39.4 | > 100 | > 100 | > 100 | – | 57.3 | > 100 | 63.9 | 25.6
18 | O=C(NCc1cccnc1)NCc1cccnc1 | – | > 100 | > 100 | > 100 | > 100 | > 100 | – | > 100 | > 100 | > 100 | > 100 | > 100 | > 100 | > 100 | > 100 | > 100 | > 100 | > 100 | > 100
19 | COc1ccc(NS(=O)CCCc2ccccc2)cc1 (configuration not stated) | > 100 | > 100 | > 100 | > 100 | – | – | – | > 100 | > 100 | > 100 | > 100 | 71.9 | > 100 | > 100 | – | > 100 | > 100 | > 100 | > 100
20 | O=C(CN1CCNCCN(CC(=O)N2CCCCC2)CCNCC1)N1CCCCC1 | > 100 | > 100 | > 100 | > 100 | > 100 | > 100 | – | > 100 | – | > 100 | > 100 | > 100 | > 100 | > 100 | > 100 | > 100 | > 100 | > 100 | > 100
21 | Cc1c(/C=N/NC(=S)Nc2ccccc2Cl)c(=O)n(-c2ccccc2)n1C | > 100 | > 100 | > 100 | > 100 | > 100 | > 100 | – | > 100 | – | > 100 | 35.7 | > 100 | > 100 | > 100 | 82.5 | 89.4 | > 100 | > 100 | > 100
22 | CN(C)CCNC(=O)c1cccc2c(NCC(=O)O)c3ccccc3nc12 | > 100 | 67.4 | > 100 | 72.1 | 57.9 | 55.2 | – | > 100 | 45.1 | > 100 | 69.5 | – | 56.4 | > 100 | > 100 | 29.8 | > 100 | 60.7 | 52.6
23 | CC1(C)CS(=O)(=O)CC(C)(C)C(=N/N)/C1=N\N | – | > 100 | > 100 | > 100 | > 100 | > 100 | – | – | > 100 | > 100 | – | > 100 | > 100 | > 100 | > 100 | > 100 | > 100 | > 100 | > 100
24 | O=C(NNC1=NCCN1)c1ccco1 | > 100 | > 100 | > 100 | > 100 | – | > 100 | – | > 100 | > 100 | > 100 | > 100 | > 100 | > 100 | > 100 | > 100 | > 100 | > 100 | > 100 | > 100
25 | COc1ccc2[nH]c3c(c2c1)CCn1c-3nc2ccccc2c1=O | > 25 | > 25 | > 25 | > 25 | – | > 25 | – | > 25 | – | > 25 | > 25 | > 25 | > 25 | > 25 | > 25 | > 25 | > 25 | > 25 | > 25
26 | O=C(c1ccccc1)c1ccc(COc2ccc(C(c3c(O)c4ccccc4oc3=O)c3c(O)c4ccccc4oc3=O)cc2)cc1 | 45.4 | > 100 | 80.4 | 58.6 | – | 34.9 | – | 38.4 | 37.6 | 39.2 | > 100 | 57.6 | 40 | 62 | 35.4 | 44.1 | 28.5 | 29.6 | 47.4
27 | COc1ccc(N2C(=O)C3c4[nH]c5ccc(C)cc5c4C4CCC(C)CC4C3C2=O)cc1 (configuration not stated) | > 100 | > 100 | > 100 | > 100 | 85 | > 100 | – | > 100 | > 100 | > 100 | > 100 | – | > 100 | > 100 | > 100 | > 100 | > 100 | – | –
28 | O=C(NCCCCCCCCNC(=O)c1cc(-c2ccccc2)nc2ccccc12)c1cc(-c2ccccc2)nc2ccccc12 | > 100 | > 100 | > 100 | > 100 | > 100 | > 100 | – | > 100 | > 100 | > 100 | > 100 | > 100 | > 100 | > 100 | > 100 | > 100 | > 100 | – | > 100
